Marks after values point to notes of the source that are not given here.
Legend:
[1] = tested on: bovine microtubule-associated protein (MAP)-rich tubulin; type: biochemical
Outline: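 MAP-rich bovine tubulin at 1.5 mg/ml final was dissolved in cold PEM buffer (80 mM Na-PIPES pH 6.9, 1 mM MgCl2, 1 mM EGTA) with 1 mM GTP, then centrifuged at 12,000×g for 10 min at 4° C. Aliquots of 100 μl were added quickly to a low-volume 96-well plate holding duplicate 10 μl compound samples. Absorbance at 340 nm was read each minute for 60 min at 24° C.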

KB cells = assay: cells; type: cell-based; settings: for IC50: 3 days, SRB
Description: (§1) Cell Survival Assay: Standard Pharmacological Test Procedure. […] Compounds are incubated with cells for 3 days.

KB85 = assay: cells; type: cell-based; settings: for IC50: 3 days, SRB
Description: as §1

KBV1 = assay: cells; type: cell-based; settings: for IC50: 3 days, SRB; for inhibition at 3 µM: KB-V1, 3000 nM
Description: as §1

SMILES | Tubulin Polym. % inhibition at 0.3 uM [1] | IC50 (KB cells; Homo sapiens, KB, 72 h) [nM] | IC50 (KB85; 72 h) [nM] | inhibition at 3 µM (KBV1; Homo sapiens) [%] | inhibition at 3 µM (KB85; 3000 nM) [%] | inhibition at 3 µM (KB cells; Homo sapiens, 72 h, 3000 nM) [%] | other results
CN[C@H](C(=O)N[C@H](C(=O)N(C)[C@H](/C=C(\C)C(=O)N(C)OC)C(C)C)C(C)(C)C)C(C)(C)c1ccccc1 [Example 52, N,β,β-trimethyl-L-phenylalanyl-N^1-{(1S,2E)-1-isopropyl-4-[methoxy(methyl)-amino]-3-methyl-4-oxobut-2-enyl}-N^1,3-dimethyl-L-valinamide] | 86% | 11 | 47 | – | – | – | IC50 (KBV1; Homo sapiens, KB-V1, 72 h): 392 nM
CN[C@H](C(=O)N[C@H](C(=O)N(C)[C@H](/C=C(\C)C(=O)NCc1ccc(-c2ccccc2)cc1)C(C)C)C(C)(C)C)C(C)(C)c1ccccc1 [Example 53, N,β,β-trimethyl-L-phenylalanyl-N-1-{(1S,2E)-4-[(1,1′-biphenyl-4-ylmethyl)amino]-1-isopropyl-3-methyl-4-oxobut-2-enyl}-N^1,3-dimethyl-L-valinamide] | 11% | – | – | – | – | – | IC50 (KB cells): 667 nM; IC50 (KB85): 1680 nM; KBV1 % inhibition @ 3000 nM (KBV1): 29%
CN[C@H](C(=O)N[C@H](C(=O)N(C)[C@@H](/C=C(\C)C(=O)OCc1ccc(OCc2ccccc2)cc1)C(C)C)C(C)(C)C)C(C)(C)c1ccccc1 [Example 54, N,β,β-trimethyl-L-phenylalanyl-N^1-((1R,2E)-4-{[4-(benzyloxy)benzyl]oxy}-1-isopropyl-3-methyl-4-oxobut-2-enyl)-N^1,3-dimethyl-L-valinamide] | 55% | 136 | 846 | 8 | – | – | –
CN[C@H](C(=O)N[C@H](C(=O)N(C)[C@H](/C=C(\C)C(=O)O)C(C)C)C(C)(C)C)C12CC3CC(CC(C3)C1)C2 [Example 55, (2E,4S)-4-[{N-[(2S)-2-(1-adamantyl)-2-(methylamino)ethanoyl]-3-methyl-L-valyl}(methyl)amino]-2,5-dimethyl-2-hexenoic acid] | 66% | 603 | 646 | 13 | – | – | –
CN[C@H](C(=O)N[C@H](C(=O)N(C)[C@H](/C=C(\C)C(=O)O)C(C)C)C(C)(C)C)c1ccccc1 [Example 57, (2E,4S)-2,5-dimethyl-4-(methyl{3-methyl-N-[(2S)-2-(methylamino)-2-phenylethanoyl]-L-valyl}amino)-2-hexenoic acid] | 75% | 1760 | 2610 | 7 | – | – | –
C/C(=C\[C@H](C(C)C)N(C)C(=O)[C@@H](NC(=O)C1N(C)CCSC1(C)C)C(C)(C)C)C(=O)O (stereo partly drawn) [Example 58, (2E,4S)-2,5-dimethyl-4-(methyl{3-methyl-N-[(2,2,4-trimethylthiomorpholin-3-yl)carbonyl]-L-valyl}amino)hex-2-enoic acid] | 89(2) % | 427 | 550 | 15 | – | – | –
CN[C@H](C(=O)N[C@H](C(=O)N(C)[C@H](/C=C(\C)C(=O)O)C(C)C)C(C)(C)C)C1(C)CCCc2ccccc21 (stereo partly drawn) [Example 59, (2E,4S)-2,5-dimethyl-4-(methyl{3-methyl-N-[(2S)-2-(methylamino)-2-(1-methyl-1,2,3,4-tetrahydro-1-naphthalenyl)ethanoyl]-L-valyl}amino)-2-hexenoic acid] | 93% | 5.5 | 6.6 | – | – | – | IC50 (KBV1; Homo sapiens, KB-V1, 72 h): 76 nM
C/C(=C\[C@H](C(C)C)N(C)C(=O)[C@@H](NC(=O)[C@@H]1CCCN1C)C(C)(C)C)C(=O)O [Example 62, 1-methyl-L-prolyl-N^1-[(1S,2E)-3-carboxy-1-isopropylbut-2-enyl]-N^1,3-dimethyl-L-valinamide] | 65(2) % | 2950 | – | 10 | 26 | – | –
CCOS(=O)(=O)/C=C/[C@H](C(C)C)N(C)C(=O)[C@@H](NC(=O)[C@@H](NC)C(C)(C)c1ccccc1)C(C)(C)C [Example 63, N,β,β-trimethyl-L-phenylalanyl-N^1-[(1S,2E)-3-(ethoxysulfonyl)-1-isopropylprop-2-enyl]-N^1,3-dimethyl-L-valinamide] | 42% | – | – | 0 | 0 | 1 | –
CN[C@H](C(=O)N[C@H](C(=O)N(C)[C@H](/C=C/S(=O)(=O)O)C(C)C)C(C)(C)C)C(C)(C)c1ccccc1 [Example 64, N,β,β-trimethyl-L-phenylalanyl-N^1-[(1S,2E)-1-isopropyl-3-sulfoprop-2-enyl]-N^1,3-dimethyl-L-valinamide] | 86% | – | – | 0 | 1 | 2 | –
CCOS(=O)(=O)/C(C)=C/[C@H](C(C)C)N(C)C(=O)[C@@H](NC(=O)[C@@H](NC)C(C)(C)c1ccccc1)C(C)(C)C [Example 65, N,β,β-trimethyl-L-phenylalanyl-N^1-[(1S,2E)-3-(ethoxysulfonyl)-1-isopropylbut-2-enyl]-N^1,3-dimethyl-L-valinamide] | 44% | – | – | 0 | 1 | 11 | –
CN[C@H](C(=O)N[C@H](C(=O)N(C)[C@H](/C=C(\C)S(=O)(=O)O)C(C)C)C(C)(C)C)C(C)(C)c1ccccc1 [Example 66, N,β,β-trimethyl-L-phenylalanyl-N^1-[(1S,2E)-1-isopropyl-3-sulfobut-2-enyl] N^1,3-dimethyl-L-valinamide] | 91% | – | – | – | – | – | KB % inhibition @ 3000 nM (KB cells; 3000 nM): 25%; KB85 % inhibition @ 3000 nM (KB85; 3000 nM): 0%; KBV1 % inhibition @ 3000 nM (KBV1): 0%
CN[C@H](C(=O)N[C@H](C(=O)N(C)[C@H](/C=C(/C)S(=O)(=O)O)C(C)C)C(C)(C)C)C(C)(C)c1ccccc1 [Example 67, N,β,β-trimethyl-L-phenylalanyl-N^1-[(1S,2Z)-1-isopropyl-3-sulfobut-2-enyl]-N^1,3-dimethyl-L-valinamide] | 21% | – | – | 0 | 0 | 0 | –
CN[C@H](C(=O)N[C@H](C(=O)N(C)[C@H](/C=C/P(=O)(OC)OC)C(C)C)C(C)(C)C)C(C)(C)c1ccccc1 [Example 68, N,β,β-trimethyl-L-phenylalanyl-N^1-[(1S,2E)-3-(dimethoxyphosphoryl)-1-isopropylprop-2-enyl]-N^1,3-dimethyl-L-valinamide] | 45% | 1980 | 2080 | 8 | – | – | –
CN[C@H](C(=O)N[C@H](C(=O)N(C)[C@H](/C=C/P(=O)(O)OC)C(C)C)C(C)(C)C)C(C)(C)c1ccccc1 [Example 69, N,β,β-trimethyl-L-phenylalanyl-N^1-{(1S,2E)-3-[hydroxy(methoxy)phosphoryl]-1-isopropylprop-2-enyl}-N^1,3-dimethyl-L-valinamide] | 59% | – | – | 3 | 0 | 0 | –
CN[C@H](C(=O)N[C@H](C(=O)N(C)[C@H](/C=C/P(=O)(O)O)C(C)C)C(C)(C)C)C(C)(C)c1ccccc1 [Example 70, N,β,β-trimethyl-L-phenylalanyl-N^1-[(1S,2E)-1-isopropyl-3-phosphonoprop-2-enyl]N^1,3-dimethyl-L-valinamide] | 69% | – | – | 3 | 0 | 0 | –
CCOP(=O)(OCC)/C(C)=C/[C@H](C(C)C)N(C)C(=O)[C@@H](NC(=O)[C@@H](NC)C(C)(C)c1ccccc1)C(C)(C)C [Example 71, N,β,β-trimethyl-L-phenylalanyl-N^1-[(1S,2E)-3-(diethoxyphosphoryl)-1-isopropyl-but-2-enyl]-N^1,3-dimethyl-L-valinamide] | 64% | 1300 | 1750 | 0 | – | – | –
CN[C@H](C(=O)N[C@H](C(=O)N(C)[C@H](/C=C(\C)P(=O)(O)O)C(C)C)C(C)(C)C)C(C)(C)c1ccccc1 [Example 72, N,β,β-trimethyl-L-phenylalanyl-N^1-[(1S,2E)-1-isopropyl-3-phosphonobut-2-enyl]-N^1,3-dimethyl-L-valinamide] | 53% | – | – | 4 | 0 | 0 | –
CN[C@H](C(=O)N[C@H](C(=O)N(C)[C@H](/C=C(\C)C(=O)c1nccs1)C(C)C)C(C)(C)C)C(C)(C)c1ccccc1 [Example 73, N,β,β-trimethyl-L-phenylalanyl-N^1-[(1S,2E)-1-isopropyl-3-methyl-4-oxo-4-(1,3-thiazol-2-yl)but-2-enyl]-N^1,3-dimethyl-L-valinamide] | 33% | 582 | 565 | – | – | – | IC50 (KBV1; Homo sapiens, KB-V1, 72 h): 1790 nM
CN[C@H](C(=O)N[C@H](C(=O)N(C)[C@H](/C=C(\C)C(O)c1ccccc1)C(C)C)C(C)(C)C)C(C)(C)c1ccccc1 (stereo partly drawn) [Example 74, N,β,β-trimethyl-L-phenylalanyl-N-1-[(1S,2E)-4-hydroxy-1-isopropyl-3-methyl-4-phenylbut-2-enyl}-N-1,3-dimethyl-L-valinamide] | 73% | – | – | – | – | – | IC50 (KB cells): 19 nM; IC50 (KB85): 54 nM; IC50 (KBV1): 466 nM
CN[C@H](C(=O)N[C@H](C(=O)N(C)[C@H](/C=C(\C)[C@@H](O)c1ccccc1)C(C)C)C(C)(C)C)C(C)(C)c1ccccc1 [Example 75, N,β,β-trimethyl-L-phenylalanyl-N-1-[(1S,2E,4R)-4-hydroxy-1-isopropyl-3-methyl-4-phenylbut-2-enyl}-N-1,3-dimethyl-L-valinamide] | – | – | – | – | – | – | Tubulin Polym. % inhibition at 0.5 uM ([1]; 0.5 uM): 83*** %; IC50 (KB cells): 124 nM; IC50 (KB85): 186 nM; IC50 (KBV1): 632 nM

— patent US7390910B2, “Compounds for treating tumors” (priority 2003, dated 2008)
